Experimental data reported in patent publication US10815275B2, “Antimicrobial peptoids with improved selectivity and use thereof” (priority 2018, dated 2020).
≈ marks a conversion by molar mass, not a printed value. Where two headings read alike, the source gives them in different places. Non-standard residues stand in square brackets, D forms with d. Residues, ends and D or L forms follow the SMILES beside them. Nspe = C[C@H](NCC(=O)O)c1ccccc1; Nphe = O=C(O)CNCc1ccccc1; Nlys = NCCCCNCC(=O)O

Experiments:
E. coli strain ATCC25922 = assay type: cell-based; conditions: for MBC E. coli: ATCC25922; for MIC E. coli: ATCC25922, 18 h
Method: (§1) In order to measure antimicrobial activity of the peptoids, Gram-positive S. aureus strain KCTC1621, or Gram-negative E. coli strain ATCC25922 was treated with the peptoids prepared in Preparation Example 1, and minimum inhibitory concentrations were measured. Peptoid NOS. 1 and 2 are already known peptoids and were used for the purpose of making a comparison with novel peptoids in terms of antimicrobial activity.
(§2) Specifically, S. aureus strain KCTC1621 or E. coli strain ATCC25922 was inoculated into Mueller Hinton Broth (MHB2) liquid medium on which cations were adjusted, cultured at a temperature of 37° C. for 18 hours, and then subcultured for 4 hours. Thereafter, the strains were diluted with MHB2 liquid medium containing 0.2% bovine serum albumin and 0.01% acetic acid so that each bacterial number was 2×10^5 colony-forming units (CFU) per 1 mL, and dispensed into 96-well microtiter plates at 100 μL each. A peptoid stock which is 40-fold more concentrated than a concentration to be tested was added to each well at 2.5 μL or lower so that the peptoid stock was 2-fold serially diluted using sterile water. Thereafter, the plates were incubated at a temperature of 37° C. for 18 hours.
(§3) Thereafter, absorbance was measured at a wavelength of 600 nm using a microplate reader (Bio-Rad). The lowest peptoid concentration that completely suppresses growth of microorganisms was measured by a minimum inhibitory concentration (MIC) and a minimum bactericidal concentration (MBC), and the measurement results are shown in Table 5 below. Each of the MIC values was calculated as an average value of numerical values obtained through three independent experiments.

[1] = system: S. aureus strain KCTC1621; assay type: cell-based; conditions: for MBC S. aureus: KCTC1621; for MIC S. aureus: KCTC1621, 18 h
Method: as §1, §2, §3

red blood cells = test: Hemolytic activity on red blood cells; assay type: cell-based, mouse
Method: In order to identify, through red blood cell hemolytic activity in mice, whether the peptoids synthesized in Preparation Example 1 are cytotoxic, red blood cells isolated from 10 mL of mouse blood were washed three times with phosphate-buffered saline (PBS, mixed solution of 35 mM phosphate buffer/150 mM NaCl, pH 7.4), and then centrifuged at a centrifugal force of 1,000 ×g for 10 minutes. A 10% (v/v) red blood cell solution diluted with PBS was dispensed into a 96-well microtiter plate at 150 μL each, and then a peptide solution was added at 50 μL each. Thereafter, the 96-well microtiter plate was incubated at a temperature of 37° C. for 1 hour.
The incubated 96-well microtiter plate was centrifuged at a centrifugal force of 1,000×g for 5 minutes. Thereafter, supernatant was taken at 100 μL each and transferred to a new 96-well microtiter plate. Then, absorbance at a wavelength of 540 nm was measured (Table 6).
In this case, a value obtained in a case of being treated with 0.1% (v/v) Triton X-100 was set as 100% hemolysis, and hemolytic activity (degree of cell destruction) of the peptoids was calculated using the following Equation 1. In the Equation 1, A is absorbance of the peptoid solution at a wavelength of 540 nm, B is absorbance of 0.1% Triton X-100 at a wavelength of 540 nm, and C is absorbance of the PBS solution at a wavelength of 540 nm. In this case, Peptoid NO. […] Degree of cell destruction (% hemolysis)=(A−C)/(B−C)[…] [Equation 1]
In Table 6, HD10 means a peptoid concentration which causes 10% hemolysis of red blood cells, and HD50 means a peptoid concentration which causes 50% hemolysis of red blood cells. In addition, Hmax is a hemolysis rate (%) at 200 μM which is the highest peptoid concentration used in the experiment.
Hemolytic activity of Peptoid NOS. 1, 18 to 23, and the peptide Pexiganan was measured in the same manner as in Experimental Example 2.

E. coli (63103 ESBL) = test: MIC in multidrug-resistant bacteria panel, modified microdilution; assay type: cell-based; conditions: overnight, 37° C.
Method: (§4) Minimum inhibitory concentrations of the prepared peptoids for multidrug-resistant bacteria were measured using a modified microdilution method in Difco Mueller Hinton medium, and tests were done on a panel of bacterial pathogens which have resistance and tolerance against common antibiotics.
(§5) Briefly, a peptoid concentrate, which is 10-fold more concentrated than a final concentration, was serially diluted with a medium containing 0.2% bovine serum albumin and 0.01% acetic acid. 10 μL of the 10-fold concentrated peptoid concentrate and 90 μL of Muller Hinton medium were added to each well of a 96-well polypropylene microtitre plate. Bacteria were added to the plate so that a final concentration thereof was 2×10^5 CFU/mL, and then incubated overnight at a temperature of 37° C. The minimum inhibitory concentration was defined as a concentration at which no bacterial growth is observed.

P. aeruginosa (PA01) = test: as above; assay type: cell-based; conditions: overnight, 37° C.
Method: as §4, §5

[2] = system: S. epidermidis (ET-024 MRSA); test: as above; assay type: cell-based; conditions: overnight, 37° C.
Method: as §4, §5

E. coli = test: Selectivity analysis, HD10 divided by MIC for E. coli; conditions: HD10 of Table 6 divided by MIC for E. coli ATCC25922
Method: In order to identify changes in selectivity depending on alteration of degree of folding in helical structure of peptoids, selectivity of each peptoid was calculated using the resultant values measured in the Experimental Examples 1 and 2. The selectivity was obtained by dividing the HD10 value by the minimum inhibitory concentration for E. coli (Table 8).

S. aureus (ATCC25923) = test: MIC in multidrug-resistant bacteria panel, modified microdilution; assay type: cell-based; conditions: overnight, 37° C.
Method: as §4, §5

B. subtilis = assay type: cell-based; conditions: 18 h
Method: (§6) In order to measure antimicrobial activity of the peptoids, Gram-positive B. subtilis or Gram-negative E. coli strain DH5α was treated with Peptoid NOS. 1, 18 to 23, and the peptide Pexiganan, and minimum inhibitory concentrations were measured. Peptoid NOS. 1 and 2, and the peptide Pexiganan are already known antimicrobial peptoids and peptides, and were used for the purpose of making a comparison with novel peptoids in terms of antimicrobial activity.
(§7) Specifically, B. subtilis or E. coli DHS a was inoculated into LB liquid medium, and cultured at a temperature of 37° C. for 18 hours. Thereafter, the bacteria were diluted with LB medium so that each bacterial number was 2×10^5 colony-forming units (CFU) per 1 mL, and dispensed into 96-well microtiter plates at 100 μL each. The peptoid, which is 2-fold serially diluted using sterile water, was added to each well at 100 μL each. The plates were incubated at a temperature of 37° C. for 18 hours.
(§8) Thereafter, absorbance was measured at a wavelength of 600 nm using a microplate reader (Bio-Rad). The lowest peptoid concentration that completely suppresses growth of microorganisms was measured by a minimum inhibitory concentration (MIC), and the measurement results are shown in Table 12 below. Each of the minimum inhibitory concentration values was calculated as an average value of numerical values obtained through three independent experiments.

E. coli strain DH5α = test: Antimicrobial activity of peptoids with altered cationic residues, MIC; assay type: cell-based; conditions: LB medium, 18 h
Method: as §6, §7, §8

in vitro = assay type: cell-based
Method: In order to determine whether the peptoids were cytotoxic against human cell lines, […] cell line (Korean Cell Line Bank) which is a human lung cell line was cultured in a DMEM (Dulbecco's modified Eagle's medium) culture solution containing 10% (v/v) fetal bovine serum (FBS) at 5% CO2 and a temperature of 37° C. 100 μL of DMEM medium was dispensed into each well of a 96-well microtiter plate so that the number of cells was 1.3×10^4, and then incubated overnight at a temperature of 37° C. in a 5% CO2 incubator. In this case, a DMEM medium was used as a negative control. Thereafter, the peptoid which is 2-fold serially diluted using sterile water was added to each well, and then incubated for 24 hours.
After incubation, 20 μL of an MTS solution [3-(4,5-dimethylthiazol-2-yl)-5-(3-carboxymethoxyphenyl)-2-(4-sulfophenyl)-2H-tetrazolium, inner salt; MTS] was added thereto and incubated at a temperature of 37° C. for 4 hours. Thereafter, % survival was calculated by measuring absorbance at a wavelength of 490 nm using an ELISA reader. The % survival was calculated as a percentage obtained by dividing the absorbance value for a well-treated with the peptoid by the absorbance value for a well containing control cells which had not been treated with the peptoid.

SMILES	MBC E. coli (E. coli strain ATCC25922) [µM]	MIC E. coli (E. coli strain ATCC25922) [µM]	MBC S. aureus [1] [µM]	MIC S. aureus [1] [µM]	HD50 (red blood cells)	minimum inhibitory concentration E. coli (63103 ESBL) (E. coli (63103 ESBL))	minimum inhibitory concentration P. aeruginosa (PA01) (P. aeruginosa (PA01))	minimum inhibitory concentration S. epidermidis (ET-024 MRSA) [2]	Selectivity [HD10/MIC (E. coli)] (E. coli)	HD10 (red blood cells)	minimum inhibitory concentration S. aureus (ATCC25923) (S. aureus (ATCC25923))	MIC B. subtilis (B. subtilis) [µM]	MIC E. coli (E. coli strain DH5α) [µM]	CC50 at 24 h (in vitro; human) [µM]	CC50 at 24 h (in vitro; concentration indicating 50% survival, 24 h, MTS, read-out: LC50) [µM]
NCCCCNCC(=O)N(CC(=O)N(CC(=O)N(CCCCN)CC(=O)N(CC(=O)N(CC(=O)N(CCCCN)CC(=O)N(CC(=O)N(CC(=O)N(CCCCN)CC(=O)N(CC(=O)N(CC(N)=O)Cc1ccccc1)Cc1ccccc1)Cc1ccccc1)Cc1ccccc1)Cc1ccccc1)Cc1ccccc1)Cc1ccccc1)Cc1ccccc1 [compound 2] (H-[Nlys][Nphe][Nphe][Nlys][Nphe][Nphe][Nlys][Nphe][Nphe][Nlys][Nphe][Nphe]-NH2)	>25	25 (≈ 42.7 µg/mL)	6.3 (≈ 10.8 µg/mL)	3.1 (≈ 5.29 µg/mL)	>200/>200	12.5	6.3	<0.8 to 0.8	>8.0						
C[C@@H](c1ccccc1)N(CC(N)=O)C(=O)CN(C(=O)CN(CCCCN)C(=O)CN(Cc1ccccc1)C(=O)CN(Cc1ccccc1)C(=O)CN(CCCCN)C(=O)CN(Cc1ccccc1)C(=O)CN(Cc1ccccc1)C(=O)CN(CCCCN)C(=O)CN(C(=O)CN(C(=O)CNCCCCN)[C@@H](C)c1ccccc1)[C@@H](C)c1ccccc1)[C@@H](C)c1ccccc1 [compound 11]	25 (≈ 44.1 µg/mL)	12.5 (≈ 22 µg/mL)	6.3 (≈ 11.1 µg/mL)	3.1 (≈ 5.47 µg/mL)	> 200	6.3	6.3	<0.8 to 0.8	4.9	61.6	3.1				
C[C@@H](c1ccccc1)N(CC(=O)N(CCCCN)CC(=O)N(CC(=O)N(CC(=O)N(CCCCN)CC(=O)N(CC(=O)N(CC(=O)N(CCCCN)CC(=O)N(CC(=O)N(CC(N)=O)Cc1ccccc1)Cc1ccccc1)Cc1ccccc1)Cc1ccccc1)Cc1ccccc1)Cc1ccccc1)C(=O)CN(C(=O)CNCCCCN)[C@@H](C)c1ccccc1 [compound 17] (H-[Nlys][Nspe][Nspe][Nlys][Nphe][Nphe][Nlys][Nphe][Nphe][Nlys][Nphe][Nphe]-NH2)	25 (≈ 43.4 µg/mL)	25 (≈ 43.4 µg/mL)	3.1 (≈ 5.38 µg/mL)	3.1 (≈ 5.38 µg/mL)	> 200		6.3	<0.8 to 0.8	4.8						
C[C@@H](c1ccccc1)N(CC(N)=O)C(=O)CN(C(=O)CN(CCCCN)C(=O)CN(C(=O)CN(C(=O)CN(CCCCN)C(=O)CN(C(=O)CN(C(=O)CNCCCCN)[C@@H](C)c1ccccc1)[C@@H](C)c1ccccc1)[C@@H](C)c1ccccc1)[C@@H](C)c1ccccc1)[C@@H](C)c1ccccc1 [compound 18] (H-[Nlys][Nspe][Nspe][Nlys][Nspe][Nspe][Nlys][Nspe][Nspe]-NH2)												1.6 (≈ 2.19 µg/mL)	3.1 (≈ 4.24 µg/mL)	40	
C[C@@H](c1ccc(F)cc1)N(CC(N)=O)C(=O)CN(C(=O)CN(CCCCN)C(=O)CN(C(=O)CN(C(=O)CN(CCCCN)C(=O)CN(C(=O)CN(C(=O)CN(CCCCN)C(=O)CN(C(=O)CN(C(=O)CNCCCCN)[C@@H](C)c1ccc(F)cc1)[C@@H](C)c1ccc(F)cc1)[C@@H](C)c1ccc(F)cc1)[C@@H](C)c1ccc(F)cc1)[C@@H](C)c1ccc(F)cc1)[C@@H](C)c1ccc(F)cc1)[C@@H](C)c1ccc(F)cc1 [compound 21]					<6.25/<6.25					<6.25/<6.25		0.4 (≈ 0.785 µg/mL)		9.5	
C[C@@H](c1ccccc1)N(CC(=O)N(CCCCN)CC(=O)N(CC(=O)N(CC(=O)N(CCCCN)CC(=O)N(CC(=O)N(CC(=O)N(CCCCN)CC(=O)N(CC(=O)N(CC(=O)N(CCCCN)CC(N)=O)[C@@H](C)c1ccccc1)[C@@H](C)c1ccccc1)[C@@H](C)c1ccccc1)[C@@H](C)c1ccccc1)[C@@H](C)c1ccccc1)[C@@H](C)c1ccccc1)C(=O)CN(C(=O)CNCCCCN)[C@@H](C)c1ccccc1 [compound 22] (H-[Nlys][Nspe][Nspe][Nlys][Nspe][Nspe][Nlys][Nspe][Nspe][Nlys][Nspe][Nspe][Nlys]-NH2)										19.5		0.4 (≈ 0.779 µg/mL)			10
